The results in this text go back to patent US9216972B2, “Tricyclic heterocyclic compounds” (Bristol-Myers Squibb Company, priority 2009, dated 2015).

For test [1], the target named is human S1P1 (Homo sapiens (Human), UniProt P21453). The experiment in a line: S1P1 Binding Assay (33P-S1P radioligand competition). Particulars: membranes from CHO cells expressing human S1P1; 0.03 nM 33P-S1P; rounded to two digits. Here is the method:
Membranes were prepared from CHO cells expressing human S1P1. Cells pellets (1×10^8cells/pellet) were suspended in buffer containing 20 mM HEPES, pH 7.5, 50 mM NaCl, 2 mM EDTA and Protease Inhibitor cocktail (Roche), and disrupted on ice using the Polytron homogenizer. The homogenate was centrifuged at 20,000 rpm (48,000 g) and the supernatant was discarded. The membrane pellets were resuspended in buffer containing 50 mM HEPES, pH 7.5, 100 mM NaCl, 1 mM MgCl2, 2 mM EDTA and stored in aliquots at −80° C. after protein concentration determination.
Membranes (2 μg/well) and 0.03 nM final concentration of ^33P-S1P ligand (1 mCi/ml, American Radiolabeled Chemicals) diluted in assay buffer (50 mM HEPES, pH7.4, 5 mM MgCl2, 1 mM CaCl2, 0.5% fatty acid free BSA, 1 mM NaF) were added to the compound plates (384 Falcon v-bottom plate (0.5 μl/well in a 11 point, 3-fold dilution). Binding was performed for 45 minutes at room temperature, terminated by collecting the membranes onto 384-well Millipore FB filter plates, and radioactivity was measured by TopCount. The competition data of the test compounds over a range of concentrations was plotted as percentage inhibition of radioligand specific binding. The IC50 is defined as the concentration of competing ligand needed to reduce specific binding by 50%.
A general note: Displacement assays read how much labelled ligand stays bound in the presence of the test substance.

In test [2] the target is S1P1 (membranes from S1P1/CHO cells) (Homo sapiens (Human), UniProt P21453). Nature of the test: Receptor [35S] GTPγS Binding Assay, S1P1. The format is biochemical. Particulars: S1P1/CHO cell membranes; rounded to two digits. How it is done: (§1) Receptor [35S] GTPγS Binding Assays
Chain of S1P1 (membranes from S1P1/CHO cells) (P21453 whole entry): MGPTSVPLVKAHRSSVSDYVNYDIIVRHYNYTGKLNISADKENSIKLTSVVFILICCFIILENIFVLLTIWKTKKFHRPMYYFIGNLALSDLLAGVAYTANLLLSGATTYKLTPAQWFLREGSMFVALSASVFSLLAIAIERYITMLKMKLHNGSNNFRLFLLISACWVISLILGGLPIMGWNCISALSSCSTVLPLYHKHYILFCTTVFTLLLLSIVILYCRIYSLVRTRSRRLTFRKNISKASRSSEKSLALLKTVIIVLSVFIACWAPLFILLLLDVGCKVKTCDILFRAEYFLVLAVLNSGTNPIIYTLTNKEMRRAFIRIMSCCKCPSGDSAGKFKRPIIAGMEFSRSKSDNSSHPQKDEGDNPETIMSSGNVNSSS
(§2) Compounds were loaded in a 384 Falcon v-bottom plate (0.5 μl/well in a 11 point, 3-fold dilution). Membranes prepared from S1P1/CHO cells or EDG3-Ga15-bla HEK293T cells were added to the compound plate (40 μl/well, final protein 3 μg/well) with multidrop. [^35S]GTP (1250 Ci/mmol, Perkin Elmer) was diluted in assay buffer: 20 mM HEPES, pH7.5, 10 mM MgCl2, 150 mM NaCl, 1 mM EGTA, 1 mM DTT, 10 μM GDP, 0.1% fatty acid free BSA, and 10 μg/ml Saponin to 0.4 nM. 40 μl of the [^35S] GTP solution was added to the compound plate with a final concentration of 0.2 nM. The reaction was kept at room temperature for 45 min. At the end of incubation, all the mixtures in the compound plate were transferred to Millipore 384-well FB filter plates via the Velocity11 Vprep liquid handler. The filter plate was washed with water 4 times by using the manifold Embla plate washer and dried at 60° C. for 45 min. MicroScint 20 scintillation fluid (30 μl) was added to each well for counting on the Packard TopCount. EC50 is defined as the agonist concentration that corresponds to 50% of the Ymax (maximal response) obtained for each individual compound tested. The results in Table B were rounded to two digits.

For test [3], the target named is S1P3 (membranes from EDG3-Ga15-bla HEK293T cells) (Homo sapiens (Human), UniProt Q99500). The experiment in a line: Receptor [35S] GTPγS Binding Assay, S1P3. The format is biochemical. Particulars: EDG3-Ga15-bla HEK293T cell membranes; rounded to two digits. How it is done: as §1, §2
Chain of S1P3 (membranes from EDG3-Ga15-bla HEK293T cells) (Q99500 whole entry): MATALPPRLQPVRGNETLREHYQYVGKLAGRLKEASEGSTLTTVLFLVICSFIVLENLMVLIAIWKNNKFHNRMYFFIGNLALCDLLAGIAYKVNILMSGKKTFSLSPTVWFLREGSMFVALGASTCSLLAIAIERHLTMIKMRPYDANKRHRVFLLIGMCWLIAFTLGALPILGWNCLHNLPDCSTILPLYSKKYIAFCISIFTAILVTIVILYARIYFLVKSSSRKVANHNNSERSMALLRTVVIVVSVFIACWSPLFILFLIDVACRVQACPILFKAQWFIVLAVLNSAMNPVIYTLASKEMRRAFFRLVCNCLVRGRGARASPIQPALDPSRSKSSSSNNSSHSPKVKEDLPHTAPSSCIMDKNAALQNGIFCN
(GTPγS is a poorly hydrolysed GTP analogue; its binding reports G protein activation.)

The subject of test [4] is circulating blood lymphocytes. Nature of the test: Blood Lymphocyte Reduction Assay (BLR) in Rodents. It counts as in vivo. Particulars: Lewis rats, oral, versus vehicle (PEG300) group. How it is done: Blood Lymphocyte Reduction Assay (BLR) in Rodents
Lewis rats were dosed orally with test article (as a solution or suspension in the vehicle) or vehicle alone (polyethylene glycol 300, “PEG300”). Blood was drawn at 4 hr and 24 h by retro-orbital bleeding. Blood lymphocyte counts were determined on an ADVIA 120 Hematology Analyzer (Siemens Healthcare Diagnostics). The results were measured as a reduction in the percentage of circulating lymphocytes as compared to the vehicle treated group at the 4 hr and 24 hr measurement. The results represent the average results of all animals within each treatment group (n=3-4).

pEC50, pIC50: −log10 of the molar value.

Chain of human S1P1 (P21453 whole entry): as the sequence (P21453 whole entry) above

One may read the pIC50 as the IC50 on a negative log10 scale, so that one unit is a factor of ten. The low end stands for a high IC50, the high end for a low IC50. The term pEC50 denotes the negative decadic logarithm of the EC50, by convention in mol/L. Lower therefore signals a large EC50. `O=C(O)C1CN(Cc2ccc3c(c2)CCc2c-3noc2-c2noc(-c3ccccc3)c2C(F)(F)F)C1` [Example 6, 1-((3-(5-Phenyl-4-(trifluoromethyl)isoxazol-3-yl)-4,5-dihydronaphtho[1,2-c]isoxazol-7-yl)methyl)azetidine-3-carboxylic acid]: in test [1], the pIC50 was 9.18. In addition, the pEC50 in test [2] is 9.23; in test [3], 5.36. In addition, the “% Reduction in Lymphocytes at 4 hr.” value in test [4] (dose 1.0 mg/kg) worked out at 86%.
Regarding `CC(C)Cc1ccc(-c2onc3c2CCc2cc(CN4CC(C(=O)O)C4)ccc2-3)cc1C(F)(F)F` [Example 23, 1-((3-(4-Isobutyl-3-(trifluoromethyl)phenyl)-4,5-dihydronaphtho[1,2-c]isoxazol-7-yl)methyl)azetidine-3-carboxylic acid], the pIC50 in test [1] was 9.01. In addition, the pEC50 in test [2] is 9.14; in test [3], 5.46. The “% Reduction in Lymphocytes at 4 hr.” value in test [4] (dose 3.0 mg/kg) stood at 76%.
